# T1: BrlR (UniProt Q9HUT5 1-270)
# T1 sequence: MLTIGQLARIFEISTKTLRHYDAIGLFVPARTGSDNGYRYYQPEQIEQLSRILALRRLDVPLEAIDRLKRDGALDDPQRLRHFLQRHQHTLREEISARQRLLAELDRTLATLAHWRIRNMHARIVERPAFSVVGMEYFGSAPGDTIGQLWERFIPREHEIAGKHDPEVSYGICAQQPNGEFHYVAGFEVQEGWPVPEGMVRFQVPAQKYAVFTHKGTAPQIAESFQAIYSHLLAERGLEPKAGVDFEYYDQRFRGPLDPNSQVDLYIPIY
# What was measured:
# brlR transcription = test: qRT-PCR of brlR transcript; format: cell-based, P. aeruginosa PAO1; conditions: ΔphzMSH strain still produces PCA; strain PAO1
# Experimental: PAO1 WT strains were grown under different conditions. For c-di-GMP effects, overexpression of PA4843 in PAO1 (PAO1/pHERD20T-PA4843) relative to WT cells (PAO1/ pHERD20T) was determined. When P. aeruginosa strains entered mid-log phase, arabinose was added to induce gene expression. To test pyocyanin’s effect, a P. aeruginosa PAO1 WT strain cells with high pyocyanin production was determined relative to a ΔphzA1-G1/phzA2-G2 strain not producing phenazine and a ΔphzMSH strain not producing pyocyanin.
# Total RNA was extracted using a MiniBEST Universal RNA Extraction Kit (TaKaRa) and cDNA synthesis was performed using a PrimeScript RT reagent Kit (TaKaRa). Primers for RT-PCR listed in Supplementary Table 1 were designed using the program PrimerExpress (Applied Biosystems). The RT-PCR reactions were performed on a CFX96 Real-Time PCR Detection System (Bio-Rad) using SYBR Premix Ex Taq™ (TaKaRa). Expression of the target genes was normalized to the expression of 16 S RNA. The relative transcript abundance was calculated according to the 2^−ΔΔCt method. Five biological replicates were performed per sample. The data were analyzed with a one-tailed t-test (***P ≤ 0.001).
# BrlR-DNA binding (PbrlR) = target: T2, BrlR-DNA binding (PbrlR) (Pseudomonas aeruginosa, UniProt Q9HUT5); test: EMSA, wild-type BrlR with PbrlR DNA; format: biochemical; conditions: wild-type BrlR, increasing concentrations of compound
# T2 construct: His6-SUMO (N, cleaved yes); made in house; host or cells: E. coli BL21 DE3
# Experimental: A 6-carboxy-fluorescein (FAM)-labeled 36-bp brlR promoter DNA (PbrlR) or 80-bp mexA/mexE promoter DNA (PmexA/PmexE) probes (~0.375 pmol), BrlR protein and varying amounts of inducers were incubated in binding buffer (10 mM Tris HCl [pH 7.4], 50 mM KCl, 1 mM DTT, […] and 5 ng/mL poly [dI-dC]) for 60 min at 25 °C. Finally, glycerol was added to a concentration of 6.5%. The samples were subjected to a 5% polyacrylamide gel electrophoresis and run in 0.5 × Tris-borate-EDTA buffer at 80 V for 1 h at room temperature. Imaging and data analyses were performed using a Typhoon Scanner (GE Healthcare) and Imagequant software. The probes used are listed in Supplementary Table 1.
# BrlR [1] = target: T3, BrlR (Pseudomonas aeruginosa, UniProt Q9HUT5); test: Surface plasmon resonance (SPR) analysis; format: binding; conditions: SPR, immobilized BrlR; for Kd: steady state, 25 °C
# T3 construct: His6-SUMO (N, cleaved yes); made in house; host or cells: E. coli BL21 DE3
# Experimental: The binding affinity of diverse toxic compounds for BrlR were investigated by SPR using a BIAcore-T200 apparatus (GE Healthcare). The ligand, BrlR (20 μM in 10 mM sodium acetate, pH 4.5), was immobilized on an activated CM5 sensor chip by amine coupling (BIAcore) with 4400 response units (RU), and the unreacted sites were blocked with 1.0 M ethanolamine–HCl (pH 8.5). Steady-state binding analysis was performed with injections of different molecules at different concentrations over the immobilized BrlR surface at a flow rate of 20 μL min^−1 at 25 °C. Association was measured for 180 s, followed by 120 s of dissociation in running buffer (20 mM Hepes pH 7.5, 150 mM NaCl). The sensorgrams for specific interactions were obtained by subtracting the reference unimmobilized flow cell response from that of the sample. Since BrlR only has one binding site for pyocyanin or other toxic compounds (Fig. 5a–f), the kinetic analysis of the sensorgrams from analyte interaction with the immobilized BrlR was performed by fitting the binding curves to a 1:1 binding model. To determine the steady state KD values, equilibrium responses were plotted against analyte concentrations, and the resulting curves were fitted to the steady state model in the BIAevaluation software package, version 3.0 (GE Healthcare).
# BrlR [2] = target: T3, BrlR; test: Fluorescence polarization (FP) binding assay, wild-type BrlR; conditions: 1 nM fluorescent ligand, 25 °C
# From the text: The most striking feature of the BrlR–c-di-GMP complex is the c-di-GMP-binding mode. The DNA-binding domain contains two separate c-di-GMP-binding sites, and shares a mutually intercalated c-di-GMP dimer in a stacking conformation with a crystallographic symmetry related binding site (Fig. 2a–c). […] The interactions stabilizing the c-di-GMPs are different for the two binding sites (Fig. 2d, e, and details are described in Supplementary Note 1). […] This structural feature allows us to perform fluorescence polarization (FP)-based binding assays[19],[23],[24] by using a fluoresceinated c-di-GMP analog, 2′-Fluo-AHC-c-di-GMP (F-c-di-GMP), containing a fluorophore attached to one of the 2′-ribose hydroxyls (Fig. 2f).
# F-c-di-GMP and F-c-di-AMP both contain a fluorophore at one of the 2′-ribose hydroxyls of c-di-GMP and c-di-AMP, respectively (Fig. 2f). To measure the binding of c-di-GMP and c-di-AMP to BrlR variants, 1 nM F-c-di-GMP or F-c-di-AMP was incubated with increasing amounts of indicated BrlR WT, BrlR mutation, or BrlR-C in reaction buffer (25 mM HEPES, 100 mM NaCl, pH 7.5) at 25 °C for 20 min. 1 nM fluorescein was incubated with BrlR WT in the same reaction buffer at 25 °C. FP measurements were conducted on a Synergy 4 Microplate Reader (BioTek) at 25 °C. All experiments were performed in triplicate. The curves were fitted to deduce binding affinities by GraphPad Prism 5.
# BrlR-C = target: T4, BrlR-C (Pseudomonas aeruginosa, UniProt Q9HUT5); test: FP competition experiment, BrlR-C; format: binding; conditions: 550 μM BrlR-C, 1 nM F-c-di-GMP
# T4 construct: His6 (cleaved yes); made in house; host or cells: E. coli (same protocol as BrlR, induction at 18 °C)
# Experimental: Supplementary Figure 11: FP analyses of F-c-di-GMP binding to BrlR-C. (a) Isotherms of BrlR-C binding to F-c-di-GMP. The binding experiment was carried out at 25 °C in a buffer containing 150 mM NaCl, 25 mM Tris·HCl (pH 7.5), and 1 nM F-c-di-GMP. Increasing concentrations of BrlR-C were titrated into the reaction mixture to obtain the binding isotherms. (b) Fluorescence polarization competition experiment of BrlR-C. As a control, 550 μM BrlR-C was added to the reaction tube containing 1 nM F-c-di-GMP, and different competitors were respectively added in the solution and the values of millipolarization were recorded.
# (1 picture or pasted object on this page, not shown here)
# P. aeruginosa PAO1 = test: Planktonic antibiotic susceptibility testing, PAO1; format: cell-based, Pseudomonas aeruginosa; conditions: for decrease of CFU number (log reduction): PAO1, 50 μg/ml tobramycin 1 h; for reduction in CFU number: cells harboring pHERD20T-PA2133 (low c-di-GMP), 50 μg/ml tobramycin 1 h
# Experimental: To determine the role of pyocyanin in antimicrobial susceptibility, P. aeruginosa strains (Supplementary Table 2) were grown at 37 °C in 20-fold diluted LB medium supplemented with or without 0.2 mM pyocyanin, which was purified from stationary phase cultures of PAO1. Tobramycin was added to the mid-log phase (OD600 = 0.8) cells suspension to a final concentration of 50 μg/ml; after 1 h, the broth was serially diluted and spread-printed onto LB agar (medium containing 300 μg/ml carbenicillin was used for the cells harboring plasmid) to determine the cell viability via CFU counts. The cell suspensions without tobramycin were set as controls. Susceptibility is expressed as a logarithmic reduction in CFU amount. The data were analyzed with a one-tailed t-test (***P ≤ 0.001).
# BrlR [3] = target: T1, BrlR; test: EMSA; pyocyanin (enhances); conditions: protein: recombinant; tags: none (His6-SUMO removed); chain copies: 4; label: 5' FAM on strand 1; blunt
# [4] = target: the molecule itself; test: crystal structure; apo-BrlR, 3.1 Å, space group P65, four BrlR molecules in the asymmetric unit; crystals from 1.8 M sodium acetate pH 7.0, 0.1 M Bis-Tris propane pH 7.0, 20 °C
molecule,measurement,setting,value
"O=C(O)c1cccc2nc3ccccc3nc12 [PCA, phenazine-1-carboxylic acid]",effect on brlR transcription,brlR transcription,could not up-regulate
Nc1ncnc2c1ncn2[C@@H]1O[C@@H]2COP(=O)(O)O[C@H]3[C@@H](O)[C@H](n4cnc5c(N)ncnc54)O[C@@H]3COP(=O)(O)O[C@H]2[C@H]1O [c-di-AMP],effect on BrlR-PbrlR DNA binding (in words),BrlR-DNA binding (PbrlR),significantly promoted
CCn1cc(C(=O)O)c(=O)c2cc(F)c(N3CCNCC3)cc21 [norfloxacin],binding to BrlR in SPR (in words),BrlR [1],signals were not sufficiently high
O=C1OC2(c3ccc(O)cc3Oc3cc(O)ccc32)c2ccccc21 [fluorescein],Kd,BrlR [2],33.6 ± 1.6 µM
Nc1ncnc2c1ncn2[C@@H]1O[C@H](COP(=O)(O)O)[C@@H](O)[C@H]1O [AMP],binding to BrlR in SPR (in words),BrlR [1],does not bind
NC[C@H]1O[C@H](O[C@H]2[C@H](O)[C@@H](O[C@H]3O[C@H](CO)[C@@H](O)[C@H](N)[C@H]3O)[C@H](N)C[C@@H]2N)[C@H](N)C[C@@H]1O [tobramycin],competition with F-c-di-GMP binding to BrlR-C,BrlR-C,outcompeted
same,Kd,BrlR [1],640 µM
same,decrease of CFU number (log reduction),P. aeruginosa PAO1; absence of pyocyanin,~ 3.4 order of magnitude
same,decrease of CFU number (log reduction),P. aeruginosa PAO1; presence of 0.2 mM pyocyanin,~ 1.5 order of magnitude
same,reduction in CFU number,P. aeruginosa PAO1; with addition of pyocyanin,1.7 order of magnitude
same,reduction in CFU number,P. aeruginosa PAO1; without pyocyanin,4.3 order of magnitude
same,effect on BrlR-PbrlR DNA binding (in words),BrlR-DNA binding (PbrlR),did not result in an observable difference
CN(C)[C@@H]1C(O)=C(C(N)=O)C(=O)[C@@]2(O)C(O)=C3C(=O)c4c(O)cccc4[C@@](C)(O)[C@H]3C[C@@H]12 [tetracycline],binding to BrlR in SPR (in words),BrlR [1],signals were not sufficiently high
CNC(C)C1CCC(N)C(OC2C(N)CC(N)C(OC3OCC(C)(O)C(NC)C3O)C2O)O1 (centres unmarked) [Gentamicin],Kd,BrlR [1],~470 µM
PmexA (dsDNA) DNA 1: ACACCTATGAATGTAAGTATTTTGCCTGCCTTCTTCGAGCCGGTGCAGCGCCTTCACGCTGCATCGGCCGCTTTCGCT DNA 2: AGCGAAAGCGGCCGATGCAGCGTGAAGGCGCTGCACCGGCTCGAAGAAGGCAGGCAAAATACTTACATTCATAGGTGT,binding result,BrlR [3],binds
"BrlR (PA4878) (natural protein, also called apo-BrlR; BrlR WT; source: E. coli BL21 DE3, purified (Ni-NTA, tag cleaved by UlpI, Source Q, Superdex 200); not shown: His6-SUMO, N-terminal, cleaved) MLTIGQLARIFEISTKTLRHYDAIGLFVPARTGSDNGYRYYQPEQIEQLSRILALRRLDVPLEAIDRLKRDGALDDPQRLRHFLQRHQHTLREEISARQRLLAELDRTLATLAHWRIRNMHARIVERPAFSVVGMEYFGSAPGDTIGQLWERFIPREHEIAGKHDPEVSYGICAQQPNGEFHYVAGFEVQEGWPVPEGMVRFQVPAQKYAVFTHKGTAPQIAESFQAIYSHLLAERGLEPKAGVDFEYYDQRFRGPLDPNSQVDLYIPIY",stoichiometry N,[4],4
PmexE (dsDNA) DNA 1: AATCTCGTCGTTCGATTAGTTCCCTGCCGGAGCAGCCCGCAGACTTCGCCAATCCCGAAAAACCGACTGGCGGAGT DNA 2: ACTCCGCCAGTCGGTTTTTCGGGATTGGCGAAGTCTGCGGGCTGCTCCGGCAGGGAACTAATCGAACGACGAGATT,binding result,BrlR [3],binds

# Source: publication PMC6028453, “BrlR from Pseudomonas aeruginosa is a receptor for both cyclic di-GMP and pyocyanin” (Nature Communications, 2018)
